Usually IC50 stands for the concentration that inhibits the measured activity by half.

Here are results for five molecules from US9604973B2, “Anti-cancer polyketide compounds” (priority 2012, dated 2017).

The test system of one test is HCT-116 cell line. In words: MTT cell proliferation assay. It counts as cell-based. Conditions: HCT-116 cell line; for IC50: MTT. The source says: Structure Activity Relationships (SAR) studies for 1SS, […], 1RS, and […]. It has been reported that ablation of C3, C6 and C7 substituents is detrimental to activity. […] (See FIG. 4). Additional activity was also observed when C17 was left in its natural R configuration.

Another test concerns CLL cells. In words: Flow cytometry, % specific induced apoptosis (DiOC6/PI) in primary CLL cells. It counts as cell-based, human. Conditions: Homo sapiens, CLL cell; CLL cells from patient with del (17p) and Tp53 mutation, 48 hours. The procedure: FIG. 20A-20C: FD-895 and PLAD induce apoptosis in CLL cells but not in normal lymphocytes with a TP53 independent activity: Primary leukemia B cells from CLL (FIG. 20A) patient with del (17p) and Tp53 mutation, (FIG. 20B) patient with wild type p53 and sensitive to F-Ara-A and (FIG. 20C) normal lymphocytes from healthy donor were incubated with FD-895, PLAD and F-Ara-A (0, 10, 100, 1000 10,000 nM) for 48 hours.
FIG. 21: FD-895 and PLAD induce apoptosis in CLL cells not ONLY independently of Tp53 but also independently of SF3B1 mutational status: Primary leukemia B cells from CLL patient with SF3B1 wild, SF3B1 mutation, 17p DEL and normal B and T lymphocytes from healthy donor were incubated with FD-895 and PLAD with 100 nM for 48 hours. After incubation, the samples were harvested and % SIA was measured by flow cytometry as described above. […] Each dots represents number of CLL patient sample and normal B or T cells.
Peripheral blood mononuclear cells (PBMC) from patients with CLL were obtained from the CLL Research Consortium (CRC) tissue bank. The blood samples were collected after obtaining a written informed consent from the patients under a protocol approved by the institutional review board of The University of California, San Diego. All patients met criteria for CLL.^1 CLL B cells and PBMCs were separated from heparinized venous blood of the B-CLL patients by density gradient centrifugation using Ficoll-Hypaque (GE healthcare) as described earlier.^2 The samples that were used had more than 95% positive cells for CD19 and CD5+, as assessed by flow cytometry. CLL B cells were maintained in RPMI 1640 medium supplemented with 10% FBS, 2 mM L-glutamine, and 100 U/mL of penicillin and 100 μg/mL of streptomycin at 37° C. in an atmosphere of 5% CO2.
Apoptotic and viable cells were discriminated via flow cytometry of cells stained with 3,3′ dihexyloxacarbocyanine iodide (DiOC6) (Molecular Probes, Eugene, Oreg., USA) and propidium iodine (Sigma, St Louis, Mo., USA), as described.^3 Using this method viable cells exclude PI and stain brightly positive for DiOC6.
A general note: Flow cytometry measures light scatter and fluorescence of single cells or particles in a stream.

In another test the test system is DNAJB1. In words: RT-PCR of spliced and unspliced mRNA (intron retention) in CLL cells. It counts as cell-based, human. The settings on record: 4 hours, FD-895, PLAD 10, 100 nM, bendamustine 33, 100 μM, F-Ara-A 3, 10, 33 μM. The procedure:
(§1) FIG. 23: FD-895 and PLAD induced inhibition of splicing in CLL: RT-PCR for analysis of spliced and unspliced mRNAs. CLL cells treated with FD-895, PLAD (10, 100 nM), chemotherapeutic agent like bendamustine (33, 100 μM) and F-Ara-A (3, 10, 33 μM) for 4 hours. RT-PCR for DNAJB1 was performed with primers spanning two exons; products were analyzed on ethidium bromide-stained agarose gels (2%) to visualize the correct size of the unspliced mRNAs. […] The exon structure of DNAJB1 gene is indicated. G, human genomic DNA was used as a control; U, unspliced mRNA; S, spliced mRNA.
(§2) CLL cells were treated with 10 and 100 nM of FD-895 and PLAD, 33 and 100 μM of bendamustine and 3, 10, and 33 μM of F-Ara-A for 4 h. Normal B and CLL cells were treated with 100 nM of FD-895 and PLAD and 10 μM of F-Ara-A for 15 minutes, 30 minutes, 1, 2 and 4 h. Total RNA was extracted using mirVana™ miRNA isolation kit (Ambion Life Technology, USA). After DNase treatment, 200 ng total RNA was reverse-transcribed using a SuperScript™ III first-strand synthesis system (Invitrogen). PCR was performed on 10 ng of the obtained cDNA (or human genomic DNA as a control) in 25 μl of reaction mixture containing Plantinum® PCR SuperMix High-fidelity (Invitrogen Life Technology, USA), and 0.1 μM of each primer of the appropriate pair.
(§3) PCR conditions were 94° C. for 3 min; 35 cycles of 94° C. for 30 s, 60° C. for 30 s, and 72° C. for 1 min; followed by 72° C. for 5 min. PCR products were separated on a 2% agarose gel and stained with ethidium bromide.

The next test has as its system GAPDH. In words: RT-PCR of spliced and unspliced mRNA (intron retention) in CLL cells, housekeeping gene. It counts as cell-based, human. The settings on record: 4 hours, same concentrations. The procedure:
as §1, §2, §3

As for `CC[C@H](OC)[C@@H](C)[C@H]1O[C@@H]1[C@H](O)[C@@H](C)/C=C/C=C(\C)[C@H]1OC(=O)C[C@H](O)CC[C@@](C)(O)[C@@H](OC(C)=O)/C=C/[C@@H]1C` [Isomer 1RS], in the test with HCT-116 cell line, the “times more active than FD-895” value is on record as about 25 times and it took 0.8 ± 0.05 nM to reach half-maximal inhibition (IC50).

Take `Nc1nc(F)nc2c1ncn2[C@@H]1O[C@H](COP(=O)(O)O)[C@@H](O)[C@@H]1O` [F-Ara-A, Fludarabine phosphate]: in the test on CLL cells, the IC50 is over 10000 nM.

The molecule `CC[C@H](OC)[C@@H](C)[C@H]1O[C@@H]1[C@@H](O)[C@@H](C)/C=C/C=C(\C)[C@H]1OC(=O)C[C@H](O)CC[C@@](C)(O)[C@@H](OC(C)=O)/C=C/[C@@H]1C` [Isomer 1SS] yielded an IC50 in the test with HCT-116 cell line (Homo sapiens) of 23 ± 1.2 nM.

As for `CC[C@H](OC)[C@@H](C)[C@H]1O[C@@H]1[C@@H](O)[C@H](C)/C=C/C=C(\C)[C@H]1OC(=O)C[C@H](O)CC[C@@](C)(O)[C@@H](OC(C)=O)/C=C/[C@@H]1C` [Isomer 1SR], the IC50 with HCT-116 cell line was 3.7 ± 0.2 nM.

As to `Cn1c(CCCC(=O)O)nc2cc(N(CCCl)CCCl)ccc21` [Bendamustine], the “intron retention/splicing inhibition of DNAJB1” value with DNAJB1 is on record as “did not show intron retention/splicing inhibition”. Besides, in the test on GAPDH, the “splicing inhibition of housekeeping gene GAPDH” value is “Neither FD-895, PLAD nor chemotherapy agents showed splicing inhibition”.
